Test results: patent US7205408B2, “Quinolines and nitrogenated derivative thereof substituted in 4-position by a piperidine-containing moiety and their use as antibacterial agents” (priority 1920, dated 2007)
Counter-ions that a name gives are not always drawn. Like-named read-outs stand apart in the source and are kept apart here.

Test: MIC of test compounds against various organisms
Format: cell-based, S. aureus, S. pneumoniae, H. influenzae, E.faecalis
Method: The MIC (μg/ml) of test compounds against various organisms was determined: S. aureus Oxford, S. aureus WCUH29, S. pneumoniae 1629, S. pneumoniae N1387, S. pneumoniae ERY 2, H. influenzae Q1, E.faecalis 1.

[1] = against one or more of S. aureus Oxford, S. aureus WCUH29, S. pneumoniae 1629, S. pneumoniae N1387, S. pneumoniae ERY 2, H. influenzae Q1, E.faecalis 1 (gram positive and gram negative bacteria), read-out: MIC

Row | MIC [1] | Structure (SMILES) | MIC
1 | – | COc1ccc2nccc([C@@H](O)CN3CCC(NCc4ccc5c(c4)NC(=O)C(C)S5)CC3)c2c1 (mixture of isomers) [Example 21, 6-({1-[(R)-2-Hydroxy-2-(6-methoxy-quinolin-4-yl)-ethyl)-piperidin-4-ylamino}-methyl)-2-(R/S)-methyl-4H-benzo[1,4]thiazin-3-one dioxalate] | ≤ 2 µg/mL
2 | – | COc1ccc2nccc([C@@H](O)CN3CCC(NCc4ccc5c(c4)NC(=O)CS5)CC3)c2n1 [Example 16, 6-({1-[(R)-2-Hydroxy-2-(6-methoxy-[1,5]naphthyridin-4-yl)-ethyl]-piperidin-4-ylamino}-methyl)-4H-benzo[1,4]thiazin-3-one dioxalate] | ≤ 0.125 µg/mL
3 | – | COc1ccc2nccc([C@@H](O)CN3CCC(NCc4ccc5c(n4)OCCO5)CC3)c2c1 [Example 19, (R)-2-{4-[(2,3-Dihydro-[1,4]dioxino[2,3-b]pyridin-6-ylmethyl)-amino]-piperidin-1-yl}-1-(6-methoxy-quinolin-4-yl)-ethanol dioxalate] | ≤ 0.125 µg/mL
4 | ≤ 0.125 µg/mL | COc1ccc2nccc([C@@H](O)CN3CCC(NCc4cc5c(cc4[N+](=O)[O-])OCO5)CC3)c2c1.O=C(O)C(=O)O.O=C(O)C(=O)O [Example 18, (R)-1-(6-Methoxy-quinolin-4-yl)-2-{4-[(6-nitro-benzo[1,3]dioxol-5-ylmethyl)-amino]-piperidin-1-yl}-ethanol dioxalate] | –
5 | – | COc1ccc2nccc([C@@H](O)CN3CCC(NS(=O)(=O)c4ccc5c(c4)NC(=O)CCS5)CC3)c2n1 [Example 17, 4-Oxo-2,3,4,5-tetrahydro-benzo[b][1,4]thiazepine-7-sulfonic acid {1-[(R)-2-hydroxy-2-(6-methoxy-[1,5]naphthyridin-4-yl)-ethyl]-piperidin-4-yl}-amide oxalate] | ≤ 2 µg/mL
6 | – | COc1ccc2nccc([C@@H](O)CN3CCC(NCc4ccc5c(c4)NC(=O)CO5)CC3)c2c1 [Example 5, 6-({1-[(R)-2-Hydroxy-2-(6-methoxy-quinolin-4-yl)-ethyl]-piperidin-4-ylamino}-methyl)-4H-benzo[1,4]oxazin-3-one dioxalate] | ≤ 2 µg/mL
7 | ≤ 2 µg/mL | COc1ccc2nccc([C@@H](O)CN3CCC(NCc4cnc5c(c4)NC(=O)CS5)CC3)c2c1 [Example 20, 7-({1-[(R)-2-Hydroxy-2-(6-methoxy-quinolin-4-yl)-ethyl]-piperidin-4-ylamino}-methyl)-1-H-pyrido[2,3-b][1,4]thiazin-2-one dioxalate] | –
